Laboratory results reported in US20250134907A1, “FUSED DIAZEPINES AS AGONISTS OF THE INSULIN-LIKE 3 (INSL3) PEPTIDE RECEPTOR RXFP2 AND METHODS OF USE THEREOF” (The United States of America,as represented by the …, priority 2022, published 2025).
Like-named read-outs stand apart in the source and are kept apart here.

Columns and labels:
[1] = tested on: chimera RXFP2-1 (extracellular domain of RXFP2, transmembrane domain of RXFP1); test: HTRF cAMP assay in HEK293T cells transiently transfected with chimera RXFP2-1; type: cell-based, human
Source text: To further investigate the involvement of the RXFP2 extracellular and transmembrane domains in agonist activation of the receptor, two complementary chimeras were created using the RXFP1 receptor, which is not activated by the agonists of formula (I), to transiently transfect HEK293T cells and measured changes in cAMP induction using the HTRF assay.
Chimeric receptors were generated by IN-FUSION™ (Takara Bio USA, Inc., San Jose, CA) mutagenesis using full-length human RXFP1 and RXFP2 receptor constructs. Polymerase chain reaction (PCR) was performed using PfuTurbo high-fidelity DNA polymerase (Agilent Technologies, Santa Clara, CA) and overlapping primers with at least 15 bp sequence homology within the fusion site. PCR products were digested with Dpnl restricton enzyme at 37° C. overnight, run on a 0.8% agarose gel and purified using the GENEJET™ Gel extraction kit (Thermo Scientific, Waltham, MA). The purified DNA fragments were then ligated into the BamHI and XhoI pre-digested pcDNA3.1™/Zeo(+) AmpR mammalian expression vector using the In-Fusion HD enzyme premix (Clontech, Mountain View, CA) at 50° C. for 15 minutes, and the resulting product was used to transform Stellar competent cells (Takara Bio USA, Inc., San Jose, CA). The clones were fully sequenced to confirm the correct fusion of both receptor fragments. Chimera RXFP2-1 contained the extracellular domain of RXFP2 and the transmembrane domain of RXFP1. Accordingly, chimera RXFP1-2 contained the extracellular domain of RXFP1 and the transmembrane domain of RXFP2.
HEK293T cells were seeded in 6-well flat-bottom clear plates at 0.5 million cells/well in 2 mL/well of growth medium (DMEM, 10% FBS, 1× Pen/Strep) and allowed to attach overnight at 37° C. and 5% CO2. The next morning, cells were transfected with 2 μg of plasmid (chimeric receptors, WT RXFP2, or WT RXFP1) and 6 μl of Lipofectamine2000 (Invitrogen, Waltham, MA) in a total volume of 200 μl/well OPTI-MEM™ I (Thermo Fisher, Waltham, MA) reduced serum medium and allowed to incubate an additional 24 hours. The next day, transfected cells were seeded in 96-well flat-bottom opaque plates at 30,000 cells/well in 60 μL/well of serum-free DMEM medium and allowed to attach overnight at 37° C. at 5% CO2. The next morning, cells were treated with 1 μL/well of compound (25 μM-0.25 nM), 2 μM forskolin, or DMSO vehicle. Cells were also treated with 4 μL of positive control INSL3 (100-0.01 nM), Relaxin2 (100-10 nM), or vehicle (serum-free DMEM+IBMX). Plates were incubated for 1 hour at 37° C. and 5% CO2, after which kit cAMP-d2 and anti-cAMP antibody were added as previously described. Cells were incubated for 1 hour at room temperature, and then the signal was read on a CLARIOstar plate reader (BMG Labtech, Germany).

[2] = Pharmacokinetic study in female mice (plasma, liver, bone); type: in vivo, female C57/BL6 mice
Source text: FIG. 24A depicts the plasma profile. FIG. 24B depicts the liver profile and FIG. 24C depicts the bone profiles. The actual concentration (ng/g) is the detected value (ng/mL) multiplied by 4. […] 40% HP-b-CD-75% PEG300. Three mice were used per time point. Results are expressed as the mean SEM.
2-hydroxypropyl-beta-cyclodextrin (HPBCD).
FIG. 24A depicts the plasma profile. FIG. 24B depicts the liver profile and FIG. 24C depicts the bone profiles. The actual concentration (ng/g) is the detected value (ng/mL) multiplied by 4. […] 40% HP-b-CD-75% PEG300. Three mice were used per time point. Results are expressed as the mean±SEM.

[3] = bone, PO 10 mg/kg, one administration
[4] = liver, PO 10 mg/kg, one administration
[5] = plasma, PO 10 mg/kg, one administration

For `O=C1Nc2ccc(-c3cc(C(F)(F)F)cc(C(F)(F)F)c3)cc2C(=O)N2CCN(C(=O)COc3ccc(OC(F)(F)F)cc3I)C[C@@H]12` [Example 187, (S)-8-(3,5-bis(trifluoromethyl)phenyl)-2-(2-(2-iodo-4-(trifluoromethoxy)phenoxy)acetyl)-1,3,4,12a-tetrahydrobenzo[e]pyrazino[1,2-a][1,4]diazepine-6,12 (2H, 11H)-dione], the “cAMP response of chimera RXFP2-1” value [1] was “no response”, the Maximum serum concentration ([2]; Table 10, IV 3 mg/kg) was 3.25 µg/mL and the AUCInf ([2]; bone, IV 3 mg/kg) was 3687 ng·h/g. For the same compound, the AUClast ([2]; bone, IV 3 mg/kg) was 3650 ng·h/g, the AUCInf [2, 3] was 2190 ng·h/g and the AUClast [2, 3] was 1897 ng·h/g. The AUCInf ([2]; bone, PO (QD*3) 10 mg/kg) was 2573 ng·h/g, the AUClast ([2]; bone, PO (QD*3) 10 mg/kg) was 2539 ng·h/g and the Cmax ([2]; female, C57/BL6, mouse, bone, iv, 3 mg/kg, IV 3 mg/kg) was 1070 ng/g. It also gave a Cmax ([2]; female, C57/BL6, mouse, bone, po, 10 mg/kg, PO 10 mg/kg, one administration) of 174 ng/g, a Cmax ([2]; female, C57/BL6, mouse, bone, po, 10 mg/kg, PO (QD*3) 10 mg/kg) of 298 ng/g and a Kp ([2]; female, C57/BL6, mouse, bone/plasma, iv, 3 mg/kg, IV 3 mg/kg, read-out: AUClast Ratio (Bone/Plasma)) of 1.14. For the same compound, the Kp ([2]; female, C57/BL6, mouse, bone/plasma, iv, 3 mg/kg, IV 3 mg/kg, read-out: Cmax Ratio (Bone/Plasma)) was 0.419, the Kp ([2]; female, C57/BL6, mouse, bone/plasma, po, 10 mg/kg, PO 10 mg/kg, one administration, read-out: AUClast Ratio (Bone/Plasma)) was 0.725 and the Kp ([2]; female, C57/BL6, mouse, bone/plasma, po, 10 mg/kg, PO 10 mg/kg, one administration, read-out: Cmax Ratio (Bone/Plasma)) was 0.475. For the same compound, the Kp ([2]; female, C57/BL6, mouse, bone/plasma, po, 10 mg/kg, PO (QD*3) 10 mg/kg, read-out: AUClast Ratio (Bone/Plasma)) was 0.779, the Kp ([2]; female, C57/BL6, mouse, bone/plasma, po, 10 mg/kg, PO (QD*3) 10 mg/kg, read-out: Cmax Ratio (Bone/Plasma)) was 0.766 and the Cmax ([2]; female, C57/BL6, mouse, liver, iv, 3 mg/kg, IV 3 mg/kg) was 28000 ng/g. The Cmax ([2]; female, C57/BL6, mouse, liver, po, 10 mg/kg, PO 10 mg/kg, one administration) was 3210 ng/g, the Cmax ([2]; female, C57/BL6, mouse, liver, po, 10 mg/kg, PO (QD*3) 10 mg/kg) was 3570 ng/g and the Kp ([2]; female, C57/BL6, mouse, liver/plasma, iv, 3 mg/kg, IV 3 mg/kg, read-out: AUClast Ratio (Liver/Plasma)) was 8.3. The Kp ([2]; female, C57/BL6, mouse, liver/plasma, iv, 3 mg/kg, IV 3 mg/kg, read-out: Cmax Ratio (Liver/Plasma)) was 10.9, the Kp ([2]; female, C57/BL6, mouse, liver/plasma, po, 10 mg/kg, PO 10 mg/kg, one administration, read-out: AUClast Ratio (Liver/Plasma)) was 9.23 and the Kp ([2]; female, C57/BL6, mouse, liver/plasma, po, 10 mg/kg, PO 10 mg/kg, one administration, read-out: Cmax Ratio (Liver/Plasma)) was 8.78. It also gave a Kp ([2]; female, C57/BL6, mouse, liver/plasma, po, 10 mg/kg, PO (QD*3) 10 mg/kg, read-out: AUClast Ratio (Liver/Plasma)) of 7.64, a Kp ([2]; female, C57/BL6, mouse, liver/plasma, po, 10 mg/kg, PO (QD*3) 10 mg/kg, read-out: Cmax Ratio (Liver/Plasma)) of 9.18 and an AUC(0-inf) ([2]; female, C57/BL6, mouse, plasma, iv, 3 mg/kg, Table 10, IV 3 mg/kg, read-out: Area under the curve-AUCinf) of 3200 ng·h/mL. For the same compound, the AUC(0-t) ([2]; female, C57/BL6, mouse, plasma, iv, 3 mg/kg, Table 10, IV 3 mg/kg, read-out: Area under the curve-AUClast) was 3190 ng·h/mL, the C0 ([2]; female, C57/BL6, mouse, plasma, iv, 3 mg/kg, Table 10, IV 3 mg/kg, read-out: Concentration-C0) was 3590 ng/mL and the half-life ([2]; female, C57/BL6, mouse, plasma, iv, 3 mg/kg, Table 10, IV 3 mg/kg, read-out: Half life-t1/2 (converted)) was 394 min. For the same compound, the AUC(0-inf) ([2]; female, C57/BL6, mouse, plasma, iv, 3 mg/kg, plasma, IV 3 mg/kg, read-out: AUCInf) was 3200 ng·h/mL, the AUC(0-t) ([2]; female, C57/BL6, mouse, plasma, iv, 3 mg/kg, plasma, IV 3 mg/kg, read-out: AUClast) was 3190 ng·h/mL and the C0 ([2]; female, C57/BL6, mouse, plasma, iv, 3 mg/kg, plasma, IV 3 mg/kg, read-out: C0) was 3590 ng/mL. For the same compound, the half-life ([2]; female, C57/BL6, mouse, plasma, iv, 3 mg/kg, plasma, IV 3 mg/kg, read-out: t1/2 (converted)) was 394 min, the AUC(0-inf) ([2]; female, C57/BL6, mouse, plasma, po, 10 mg/kg, Table 10, POA single 10 mg/kg, read-out: Area under the curve-AUCinf) was 2650 ng·h/mL and the AUC(0-t) ([2]; female, C57/BL6, mouse, plasma, po, 10 mg/kg, Table 10, POA single 10 mg/kg, read-out: Area under the curve-AUClast) was 2620 ng·h/mL. The half-life ([2]; female, C57/BL6, mouse, plasma, po, 10 mg/kg, Table 10, POA single 10 mg/kg, read-out: Half life-t1/2 (converted)) was 233 min, the AUC(0-inf) ([2]; female, C57/BL6, mouse, plasma, po, 10 mg/kg, Table 10, POB QD × 3, 10 mg/kg, read-out: Area under the curve-AUCinf) was 3270 ng·h/mL and the AUC(0-t) ([2]; female, C57/BL6, mouse, plasma, po, 10 mg/kg, Table 10, POB QD × 3, 10 mg/kg, read-out: Area under the curve-AUClast) was 3260 ng·h/mL. The half-life ([2]; female, C57/BL6, mouse, plasma, po, 10 mg/kg, Table 10, POB QD × 3, 10 mg/kg, read-out: Half life-t1/2 (converted)) was 353 min, the AUC(0-inf) ([2]; female, C57/BL6, mouse, plasma, po, 10 mg/kg, plasma, PO 10 mg/kg, one administration, read-out: AUCInf) was 2650 ng·h/mL and the AUC(0-t) ([2]; female, C57/BL6, mouse, plasma, po, 10 mg/kg, plasma, PO 10 mg/kg, one administration, read-out: AUClast) was 2620 ng·h/mL. For the same compound, the C0 ([2]; female, C57/BL6, mouse, plasma, po, 10 mg/kg, plasma, PO 10 mg/kg, one administration, read-out: C0) was 366 ng/mL, the half-life ([2]; female, C57/BL6, mouse, plasma, po, 10 mg/kg, plasma, PO 10 mg/kg, one administration, read-out: t1/2 (converted)) was 233 min and the AUC(0-inf) ([2]; female, C57/BL6, mouse, plasma, po, 10 mg/kg, plasma, PO (QD*3) 10 mg/kg, read-out: AUCInf) was 3270 ng·h/mL. The AUC(0-t) ([2]; female, C57/BL6, mouse, plasma, po, 10 mg/kg, plasma, PO (QD*3) 10 mg/kg, read-out: AUClast) was 3260 ng·h/mL, the C0 ([2]; female, C57/BL6, mouse, plasma, po, 10 mg/kg, plasma, PO (QD*3) 10 mg/kg, read-out: C0) was 389 ng/mL and the half-life ([2]; female, C57/BL6, mouse, plasma, po, 10 mg/kg, plasma, PO (QD*3) 10 mg/kg, read-out: t1/2 (converted)) was 353 min. The bioavailability ([2]; female, C57/BL6, mouse, plasma, po, Table 10, POA single 10 mg/kg, read-out: Bioavailability-F) was 24.8%, the MRT last ([2]; female, C57/BL6, mouse, plasma, Table 10, IV 3 mg/kg, read-out: Mean residence time-MRTlast) was 3.47 h and the clearance ([2]; female, C57/BL6, mouse, plasma, Table 10, IV 3 mg/kg, read-out: Total clearance after IV administration-CLobs) was 15.6 mL/min/kg. For the same compound, the Vd ([2]; female, C57/BL6, mouse, plasma, Table 10, IV 3 mg/kg, read-out: Volume of distribution in steady state-VSSobs) was 3.38 L/kg, the Tmax ([2]; female, C57/BL6, mouse, bone, IV 3 mg/kg) was 0.083 h and the Tmax ([2]; female, C57/BL6, mouse, bone, PO 10 mg/kg, one administration) was 3 h. The Tmax ([2]; female, C57/BL6, mouse, liver, IV 3 mg/kg) was 0.083 h, the Tmax ([2]; female, C57/BL6, mouse, liver, PO 10 mg/kg, one administration) was 1 h and the MRT ([2]; female, C57/BL6, mouse, plasma, IV 3 mg/kg) was 3.47 h. The Tmax ([2]; female, C57/BL6, mouse, plasma, PO 10 mg/kg, one administration) was 1 h, the AUCInf ([2]; liver, IV 3 mg/kg) was 26524 ng·h/g and the AUClast ([2]; liver, IV 3 mg/kg) was 26492 ng·h/g. It also gave an AUCInf [2, 4] of 24170 ng·h/g, an AUClast [2, 4] of 24146 ng·h/g and an AUCInf ([2]; liver, PO (QD*3) 10 mg/kg) of 24965 ng·h/g. For the same compound, the AUClast ([2]; liver, PO (QD*3) 10 mg/kg) was 24927 ng·h/g, the AUC_%Extrap ([2]; plasma, IV 3 mg/kg) was 0.258% and the Cl_obs ([2]; plasma, IV 3 mg/kg) was 15.6 mL/min/kg. The Vss_obs ([2]; plasma, IV 3 mg/kg) was 3.38 L/kg, the AUC_%Extrap [2, 5] was 1.20% and the F [2, 5] was 24.8%. The AUC_%Extrap ([2]; plasma, PO (QD*3) 10 mg/kg) was 0.265%.
